Results as given in US11066416B2, “Rapafucin derivative compounds and methods of use thereof” (The Johns Hopkins University, priority 2016, dated 2021).

Experiments:
Type in all cases: cell-based
[1] = tested on: nucleoside uptake (3H-Thymidine); test: Rel.Uptake: nucleoside uptake, single concentration assay, cell line as indicated in each table; conditions: 293T, nucleoside uptake, response relative to DMSO
Experimental: (§1) Nucleoside Uptake Assay (uptake). Nuceloside uptake assays were performed with using 3H-Thymidine as described in Guo et al. (2018) Nat. Chem. 11:254-63. Specific cell lines are indicated in each assay and cultured in complete growth media. Activity is scored according to the IC50 values relative to DMSO control. “Low” indicates an IC50 greater than 600 nM, “Medium” indicates an IC50 between 300 nM and 600 nM “High” indicates an IC50 less than 300 nM. “Rel.Uptake” refers to uptake activity characterization relative to a single concentration assay. “Low” indicates a response greater than 0.6 times the activity relative to DMSO, “Medium” indicates a response between 0.6 and 0.3 times the activity relative to DMSO, “High” indicates a response less than 0.3 times the activity relative to DMSO.

H929 = test: Cell proliferation assay (Prolif.), H929; conditions: H929 cells; Table 11
Experimental: Cell Proliferation Assay (Prolif.) Guo et al. (2018) Nat. Chem. 11:254-63. Specific cell lines are indicated in each assay and cultured in complete growth media. Activity is scored according to the IC50 values relative to DMSO control. “Low” indicates an IC50 greater than 600 nM, “Medium” indicates an IC50 between 300 nM and 600 nM “High” indicates an IC50 less than 300 nM. “Rel.Uptake” refers to uptake activity characterization relative to a single concentration assay. “Low” indicates a response greater than 0.6 times the activity relative to DMSO, “Medium” indicates a response between 0.6 and 0.3 times the activity relative to DMSO, “High” indicates a response less than 0.3 times the activity relative to DMSO.

[2] = tested on: nucleoside uptake (3H-Thymidine); test: Nucleoside uptake assay (uptake) using 3H-Thymidine, IC50, cell line as indicated in each table (none given in Table 8); conditions: 3H-Thymidine uptake; cell line not given
Experimental: as §1

Row | IC50 [2] [nM] | Structure (SMILES) | Rel. Uptake, 293T [1] | Prolif, H929 (H929)
1 |  | COc1ccc(CC[C@H]2OC(=O)[C@@H]3CCCCN3C(=O)C(=O)C(C)(C)COC(=O)C=CCCN(C)C(=O)[C@@H](Cc3ccccc3)NC(=O)CN(C)C(=O)[C@@H](Cc3ccccc3)NC(=O)[C@H](Cc3ccc(O)cc3)N(C)C(=O)COc3cccc2c3)c(F)c1OC [Compound 1571] | low | low
2 |  | COc1ccc(CC[C@H]2OC(=O)[C@@H]3CCCCN3C(=O)C(=O)C(C)(C)COC(=O)C=CCCN(C)C(=O)[C@@H](Cc3ccccc3)NC(=O)CN(C)C(=O)[C@@H](Cc3ccccc3)NC(=O)[C@H](Cc3ccc(O)cc3)N(C)C(=O)COc3cc(F)cc2c3)cc1OC [Compound 1576] | medium | medium
3 |  | COc1cc(OC)c(OC)cc1CC[C@H]1OC(=O)[C@@H]2CCCCN2C(=O)C(=O)C(C)(C)COC(=O)C=CCCN(C)C(=O)[C@@H](Cc2ccccc2)NC(=O)CN(C)C(=O)[C@@H](Cc2ccccc2)NC(=O)[C@H](Cc2ccc(O)cc2)N(C)C(=O)COc2cccc1c2 [Compound 1581] | medium | medium
4 |  | COc1cc(CC[C@H]2OC(=O)[C@@H]3CCCCN3C(=O)C(=O)C(C)(C)COC(=O)C=CCCN(C)C(=O)[C@@H](Cc3ccccc3)NC(=O)CN(C)C(=O)[C@@H](Cc3ccccc3)NC(=O)[C@H](Cc3ccc(O)cc3)N(C)C(=O)COc3cccc2c3)c(OC)c(OC)c1 [Compound 1582] | low | low
5 | 10.5 | COc1ccc(CC[C@H]2OC(=O)[C@@H]3CCCCN3C(=O)C(=O)C(C)(C)COC(=O)C=CCCN(C)C(=O)[C@H](CC(C)C)N(C)C(=O)[C@@H]3CCCN3C(=O)[C@@H](Cc3ccccc3)N(C)C(=O)[C@H](C)NC(=O)COc3cccc2c3)cc1OC [Compound 1623] |  | 
6 |  | COc1ccc(CC[C@H]2OC(=O)[C@@H]3CN(C(=O)OCC4c5ccccc5-c5ccccc54)CCN3C(=O)C(=O)C(C)(C)COC(=O)C=CCCN(C)C(=O)[C@@H](Cc3ccccc3)NC(=O)CN(C)C(=O)[C@@H](Cc3ccccc3)NC(=O)[C@H](Cc3ccc(O)cc3)N(C)C(=O)COc3cccc2c3)cc1OC [Compound 1572] | low | low
7 |  | COc1ccc(CC[C@H]2OC(=O)[C@@H]3CCCCN3C(=O)C(=O)C(C)(C)COC(=O)C=CCCN(C)C(=O)[C@@H](Cc3ccccc3)NC(=O)CN(C)C(=O)[C@@H](Cc3ccccc3)NC(=O)[C@H](Cc3ccc(O)cc3)N(C)C(=O)COc3cc2ccc3F)cc1OC [Compound 1578] | low | low
8 | 27.9 | COc1ccc(CC[C@H]2OC(=O)[C@@H]3CCCCN3C(=O)C(=O)C(C)(C)COC(=O)/C=C/CCN(C)C(=O)[C@H](C(C)C)N(C)C(=O)[C@@H]3CCCN3C(=O)[C@@H](Cc3ccccc3)N(C)C(=O)CNC(=O)CCC(=O)Nc3cccc2c3)cc1OC [Compound 1605] |  | 
9 |  | COc1cc(CC[C@H]2OC(=O)[C@@H]3CCCCN3C(=O)C(=O)C(C)(C)COC(=O)C=CCCN(C)C(=O)[C@@H](Cc3ccccc3)NC(=O)CN(C)C(=O)[C@@H](Cc3ccccc3)NC(=O)[C@H](Cc3ccc(O)cc3)N(C)C(=O)COc3cccc2c3)cc(F)c1OC [Compound 1569] | low | low
10 | 33.5 | COc1ccc(CC[C@H]2OC(=O)[C@@H]3CCCCN3C(=O)C(=O)C(C)(C)COC(=O)/C=C/CCN(C)C(=O)[C@H](C(C)C)N(C)C(=O)[C@@H]3CCCN3C(=O)[C@@H](Cc3ccccc3)N(C)C(=O)[C@H](C)NC(=O)COc3cccc2c3)cc1OC [Compound 1612] |  | 
11 | 54.1 | COc1ccc(CC[C@H]2OC(=O)[C@@H]3CCCCN3C(=O)C(=O)C(C)(C)COC(=O)/C=C/CCN(C)C(=O)[C@H](C(C)C)N(C)C(=O)[C@@H]3CCCN3C(=O)[C@@H](Cc3ccccc3)N(C)C(=O)[C@H](CC(C)C)NC(=O)CCC(=O)Nc3cccc2c3)cc1OC [Compound 1608] |  | 
12 |  | COc1ccc(OC)c(OC)c1CC[C@H]1OC(=O)[C@@H]2CCCCN2C(=O)C(=O)C(C)(C)COC(=O)C=CCCN(C)C(=O)[C@@H](Cc2ccccc2)NC(=O)CN(C)C(=O)[C@@H](Cc2ccccc2)NC(=O)[C@H](Cc2ccc(O)cc2)N(C)C(=O)COc2cccc1c2 [Compound 1583] | low | low
13 |  | COc1ccc(CC[C@H]2OC(=O)[C@@H]3CCCCN3C(=O)C(=O)C(C)(C)COC(=O)C=CCCN(C)C(=O)[C@@H](Cc3ccccc3)NC(=O)CN(C)C(=O)[C@@H](Cc3ccccc3)NC(=O)[C@H](Cc3ccc(O)cc3)N(C)C(=O)COc3ccc(F)c2c3)cc1OC [Compound 1575] | low | low
14 |  | COc1ccc(CC[C@H]2OC(=O)[C@@H]3CN(C)CCN3C(=O)C(=O)C(C)(C)COC(=O)C=CCCN(C)C(=O)[C@@H](Cc3ccccc3)NC(=O)CN(C)C(=O)[C@@H](Cc3ccccc3)NC(=O)[C@H](Cc3ccc(O)cc3)N(C)C(=O)COc3cccc2c3)cc1OC [Compound 1574] | low | low
15 |  | COc1ccc(CC[C@H]2OC(=O)[C@@H]3CNCCN3C(=O)C(=O)C(C)(C)COC(=O)C=CCCN(C)C(=O)[C@@H](Cc3ccccc3)NC(=O)CN(C)C(=O)[C@@H](Cc3ccccc3)NC(=O)[C@H](Cc3ccc(O)cc3)N(C)C(=O)COc3cccc2c3)cc1OC [Compound 1573] | low | low
16 |  | COc1cc(O)c(CC[C@H]2OC(=O)[C@@H]3CCCCN3C(=O)C(=O)C(C)(C)COC(=O)C=CCCN(C)C(=O)[C@@H](Cc3ccccc3)NC(=O)CN(C)C(=O)[C@@H](Cc3ccccc3)NC(=O)[C@H](Cc3ccc(O)cc3)N(C)C(=O)COc3cccc2c3)cc1OC [Compound 1568] | low | low
17 |  | COc1ccc(CC[C@H]2OC(=O)[C@@H]3CCCCN3C(=O)C(=O)C(C)(C)COC(=O)C=CCCN(C)C(=O)[C@@H](Cc3ccccc3)NC(=O)CN(C)C(=O)[C@@H](Cc3ccccc3)NC(=O)[C@H](Cc3ccc(O)cc3)N(C)C(=O)COc3cccc2c3)c(O)c1OC [Compound 1584] | low | low
18 |  | COc1ccc(CC[C@H]2OC(=O)[C@@H]3CCCCN3C(=O)C(=O)C(C)(C)COC(=O)C=CCCN(C)C(=O)[C@@H](Cc3ccccc3)NC(=O)CN(C)C(=O)[C@@H](Cc3ccccc3)NC(=O)[C@H](Cc3ccc(O)cc3)N(C)C(=O)COc3cccc2c3)c(OC)c1OC [Compound 1577] | medium | medium
19 |  | COc1cc(CC[C@H]2OC(=O)[C@@H]3CCCCN3C(=O)C(=O)C(C)(C)COC(=O)C=CCCN(C)C(=O)[C@@H](Cc3ccccc3)NC(=O)CN(C)C(=O)[C@@H](Cc3ccccc3)NC(=O)[C@H](Cc3ccc(O)cc3)N(C)C(=O)COc3cccc2c3)cc(O)c1OC [Compound 1567] | medium | medium
20 |  | COc1ccc(CC[C@H]2OC(=O)[C@@H]3CCCCN3C(=O)C(=O)C(C)(C)COC(=O)C=CCCN(C)C(=O)[C@@H](Cc3ccccc3)NC(=O)CN(C)C(=O)[C@@H](Cc3ccccc3)NC(=O)[C@H](Cc3ccc(O)cc3)N(C)C(=O)COc3cncc2c3)cc1OC [Compound 1580] | low | low
21 |  | COc1cc(F)c(CC[C@H]2OC(=O)[C@@H]3CCCCN3C(=O)C(=O)C(C)(C)COC(=O)C=CCCN(C)C(=O)[C@@H](Cc3ccccc3)NC(=O)CN(C)C(=O)[C@@H](Cc3ccccc3)NC(=O)[C@H](Cc3ccc(O)cc3)N(C)C(=O)COc3cccc2c3)cc1OC [Compound 1570] | medium | medium
22 |  | COc1cc(CC[C@H]2OC(=O)[C@@H]3CCCCN3C(=O)C(=O)C(C)(C)COC(=O)C=CCCN(C)C(=O)[C@@H](Cc3ccccc3)NC(=O)CN(C)C(=O)[C@@H](Cc3ccccc3)NC(=O)[C@H](Cc3ccc(O)cc3)N(C)C(=O)COc3cccc2c3)cc(OC)c1OC [Compound 1566] | medium | medium
23 |  | COc1ccc(CC[C@H]2OC(=O)[C@@H]3CCCCN3C(=O)C(=O)C(C)(C)COC(=O)C=CCCN(C)C(=O)[C@@H](Cc3ccccc3)NC(=O)CN(C)C(=O)[C@@H](Cc3ccccc3)NC(=O)[C@H](Cc3ccc(O)cc3)N(C)C(=O)COc3cccc2c3F)cc1OC [Compound 1579] | medium | medium

Row | Structure (SMILES) | IC50 [2] [nM] | Rel. Uptake, 293T [1] | Prolif, H929 (H929)
24 | CC[C@H](C)[C@H]1C(=O)N(C)CC/C=C/C(=O)OCC(C)(C)C(=O)C(=O)N2CCCC[C@H]2C(=O)O[C@H](CCc2ccc(OC)c(OC)c2)c2cccc(c2)NC(=O)CCC(=O)N[C@@H](c2ccccc2)C(=O)N(C)[C@H](Cc2ccccc2)C(=O)N2CCC[C@H]2C(=O)N1C [Compound 1616] | 100 |  | 
25 | CCCC[C@H]1C(=O)N(C)CC/C=C/C(=O)OCC(C)(C)C(=O)C(=O)N2CCCC[C@H]2C(=O)O[C@H](CCc2ccc(OC)c(OC)c2)c2cccc(c2)OCC(=O)NCC(=O)N(C)[C@H](Cc2ccccc2)C(=O)N2CCC[C@H]2C(=O)N1C [Compound 1620] | 13.9 |  | 
26 | CC[C@H](C)[C@H]1C(=O)N(C)CC/C=C/C(=O)OCC(C)(C)C(=O)C(=O)N2CCCC[C@H]2C(=O)O[C@H](CCc2ccc(OC)c(OC)c2)c2cccc(c2)OCC(=O)N[C@@H](C)C(=O)N(C)[C@H](Cc2ccccc2)C(=O)N2CCC[C@H]2C(=O)N1C [Compound 1617] | 34.1 |  | 
